Test results reported in patent US10703764B2, “Benzopiperazine compositions as BET bromodomain inhibitors” (FORMA Therapeutics, Inc., priority 2013, dated 2020).

Legend:
MV4-11 cells = experiment: Oncology cell growth assay (3-day proliferation, CellTiter-Glo); type: cell-based; details: Homo sapiens, MV4-11, 72 h, AML cell line MV4-11, 72 hours, compounds grouped by IC50 range, read-out: MV4-11 IC50 (inhibition of proliferation, gIC50)
Outline: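 Compounds were serially diluted 3-fold in DMSO, giving final well concentrations from 10 down to 0.0045 μM. MV4-11 cells were then seeded at 3000 cells/well in RPMI 1640 with 10% FBS and incubated 72 hours. CellTiter-Glo signal was measured and gIC50 obtained by four-parameter logistic regression.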

BRD4 BD1 = molecular target: T1, BRD4 BD1 (Homo sapiens, UniProt O60885); experiment: AlphaScreen binding assay, BRD4 Bromodomain 1
T1 construct: made in house
Outline: (§1)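 An AlphaScreen competition format was used with His-BRD4 BD1 or BD2 and biotin-H4 K5/8/12/16-acetyl peptide, each at matched final levels of 50 nM (BD1) or 100 nM (BD2). Incubation in HEPES/NaCl buffer with 0.1% BSA and 0.01% Triton X-100 ran ≥1 h before IC50 determination.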

BRD4 BD2 = molecular target: T2, BRD4 BD2 (Homo sapiens, UniProt O60885); experiment: AlphaScreen binding assay, BRD4 Bromodomain 2
T2 construct: made in house
Outline: as §1

| Compound | IC50 (MV4-11 cells) | IC50 (BRD4 BD1) | IC50 (BRD4 BD2) |
| --- | --- | --- | --- |
| CCOC(=O)N1C[C@H](C)N(C(C)=O)c2ccc(-c3ccc(OC)c(N4CCCS4(=O)=O)c3)cc21 [Example I-1169] | 100 to 500 nM | 100 to 1000 nM | 50 to 500 nM |
| COc1ccc(-c2ccc3c(c2)N(C(=O)OC(C)C)C[C@H](C)N3C(C)=O)cc1N1CCCS1(=O)=O [Example I-1170] | 100 to 500 nM | 100 to 1000 nM | 50 to 500 nM |
| CC(=O)N1c2ccc(-c3ccc(NS(C)(=O)=O)c(C)c3)cc2N(C(=O)C2CC2)C[C@@H]1C [Example I-1171] | 100 to 500 nM | 100 to 1000 nM | 50 to 500 nM |
| CCOC(=O)N1C[C@H](C)N(C(C)=O)c2ccc(-c3ccc(NS(C)(=O)=O)c(C)c3)cc21 [Example I-1173] | 100 to 500 nM | 100 to 1000 nM | 50 to 500 nM |
| CC(=O)N1c2ccc(-c3ccc(NS(C)(=O)=O)c(C)c3)cc2N(C(=O)OC(C)C)C[C@@H]1C [Example I-1174] | 100 to 500 nM | 100 to 1000 nM | 50 to 500 nM |
| CC(=O)N1c2ccc(-c3ccc4c(c3)N(C)S(=O)(=O)N4)cc2N(C(=O)C2CC2)C[C@@H]1C [Example I-1175] | > 500 nM | 100 to 1000 nM | 50 to 500 nM |
| CC(=O)N1c2ccc(-c3ccc4c(c3)N(C)S(=O)(=O)N4)cc2N(C(=O)C2CCC2)C[C@@H]1C [Example I-1176] | > 500 nM | 100 to 1000 nM | < 50 nM |
| CC(=O)N1c2ccc(-c3ccc4c(c3)N(C)S(=O)(=O)N4)cc2N(C(=O)OC(C)C)C[C@@H]1C [Example I-1177] | > 500 nM | 100 to 1000 nM | 50 to 500 nM |
| CC(=O)N1c2ccc(-c3ccc(NS(C)(=O)=O)c(F)c3)cc2N(C(=O)C2CC2)C[C@@H]1C [Example I-1180] | > 500 nM | 100 to 1000 nM | 50 to 500 nM |
| CC(=O)N1c2ccc(-c3ccc(NS(C)(=O)=O)c(F)c3)cc2N(C(=O)C2CCC2)C[C@@H]1C [Example I-1181] | > 500 nM | 1000 to 10000 nM | 50 to 500 nM |
| CC(=O)N1c2ccc(-c3ccc(NS(C)(=O)=O)c(F)c3)cc2N(C(=O)OC(C)C)C[C@@H]1C [Example I-1183] | 100 to 500 nM | 100 to 1000 nM | < 50 nM |
| CC(=O)N1c2ccc(-c3ccc4c(c3)N(S(C)(=O)=O)CCC4)cc2N(C(=O)C2CC2)C[C@@H]1C [Example I-1184] | 100 to 500 nM | 100 to 1000 nM | 50 to 500 nM |
| CC(=O)N1c2ccc(-c3cnn(C4CC4)c3)cc2N(C(=O)Oc2cncc(Cl)c2)C[C@@H]1C [Example I-1187] | > 500 nM | 100 to 1000 nM | < 50 nM |
| CC(=O)N1c2ccc(-c3cnn(C4CC4)c3)cc2N(C(=O)Oc2ccc(C)nc2C)C[C@@H]1C [Example I-1190] | > 500 nM | 100 to 1000 nM | 50 to 500 nM |
| CC(=O)N1c2ccc(-c3cnn(C4CC4)c3)cc2N(C(=O)Oc2cccc3ncccc23)C[C@@H]1C [Example I-1191] | 100 to 500 nM | 100 to 1000 nM | < 50 nM |
| CC(=O)N1c2ccc(-c3cnn(C4CC4)c3)cc2N(C(=O)Oc2cccc3cccnc23)C[C@@H]1C [Example I-1195] | < 100 nM | 100 to 1000 nM | < 50 nM |

| Compound | IC50 (MV4-11 cells) | IC50 (BRD4 BD1) | IC50 (BRD4 BD2) |
| --- | --- | --- | --- |
| CC(=O)N1c2ccc(-c3cnn(C4CC4)c3)cc2N(C(=O)Oc2cc(C)ccc2F)C[C@@H]1C [Example I-1198] | 100 to 500 nM | 100 to 1000 nM | 50 to 500 nM |
| COc1ccc(F)cc1OC(=O)N1C[C@H](C)N(C(C)=O)c2ccc(-c3cnn(C4CC4)c3)cc21 [Example I-1201] | 100 to 500 nM | 100 to 1000 nM | < 50 nM |
| CC(=O)N1c2ccc(-c3cnn(C4CC4)c3)cc2N(C(=O)Oc2ccc3cccnc3c2)C[C@@H]1C [Example I-1202] | 100 to 500 nM | 100 to 1000 nM | 50 to 500 nM |
| CC(=O)N1c2ccc(-c3cnn(C4CC4)c3)cc2N(C(=O)Oc2cccc3nccnc23)C[C@@H]1C [Example I-1204] | < 100 nM | 100 to 1000 nM | < 50 nM |
| CC(=O)N1c2ccc(-c3cnn(C4CC4)c3)cc2N(C(=O)Oc2ccc3c(c2)ncn3C)C[C@@H]1C [Example I-1205] | 100 to 500 nM | 100 to 1000 nM | < 50 nM |
| CC(=O)N1c2ccc(-c3cnn(C4CC4)c3)cc2N(C(=O)Oc2ccc3ccncc3c2)C[C@@H]1C [Example I-1206] | 100 to 500 nM | 100 to 1000 nM | < 50 nM |
| CC(=O)N1c2ccc(-c3cnn(CCO)c3)cc2N(C(=O)N(C)C(C)C)C[C@@H]1C [Example I-1211] | > 500 nM | > 10000 nM | 50 to 500 nM |
| CC(=O)N1c2ccc(-c3cnn(CCO)c3)cc2N(C(=O)N(C)c2ccccc2)C[C@@H]1C [Example I-1212] | > 500 nM | > 10000 nM | > 500 nM |
| CCS(=O)(=O)c1ccc(-c2ccc3c(c2)N(C(=O)OC2CCOCC2)C[C@H](C)N3C(C)=O)cc1 [Example I-1214] | 100 to 500 nM | 100 to 1000 nM | 50 to 500 nM |
| CC(=O)N1c2ccc(-c3ccc(S(=O)(=O)C4CC4)cc3)cc2N(C(=O)OC2CCCCC2)C[C@@H]1C [Example I-1215] | 100 to 500 nM | 100 to 1000 nM | 50 to 500 nM |
| CC(=O)N1c2ccc(-c3ccc(S(=O)(=O)C4CC4)cc3)cc2N(C(=O)OC2CCOCC2)C[C@@H]1C [Example I-1216] | 100 to 500 nM | 100 to 1000 nM | 50 to 500 nM |
| CC(=O)N1c2ccc(-c3ccc(S(=O)(=O)NCCO)cc3)cc2N(C(=O)OC2CCCCC2)C[C@@H]1C [Example I-1217] | < 100 nM | 100 to 1000 nM | < 50 nM |
| CC(=O)N1c2ccc(-c3ccc(S(=O)(=O)NCCO)cc3)cc2N(C(=O)OC2CCOCC2)C[C@@H]1C [Example I-1218] | 100 to 500 nM | 100 to 1000 nM | 50 to 500 nM |
| CC(=O)N1c2ccc(-c3cccc(S(N)(=O)=O)c3)cc2N(C(=O)OC2CCCCC2)C[C@@H]1C [Example I-1219] | < 100 nM | 100 to 1000 nM | < 50 nM |
| CC(=O)N1c2ccc(-c3cccc(S(N)(=O)=O)c3)cc2N(C(=O)OC2CCOCC2)C[C@@H]1C [Example I-1220] | 100 to 500 nM | 100 to 1000 nM | 50 to 500 nM |
| CC(=O)N1c2ccc(-c3cccc(NS(C)(=O)=O)c3)cc2N(C(=O)OC2CCCCC2)C[C@@H]1C [Example I-1221] | 100 to 500 nM | 100 to 1000 nM | 50 to 500 nM |

Second part, the molecule after the results:

| IC50 (MV4-11 cells) | IC50 (BRD4 BD1) | IC50 (BRD4 BD2) | Compound |
| --- | --- | --- | --- |
| 100 to 500 nM | 100 to 1000 nM | 50 to 500 nM | COc1ccc(-c2ccc3c(c2)N(C(=O)C2CCC2)C[C@H](C)N3C(C)=O)cc1N1CCCS1(=O)=O [Example I-1168] |
| 100 to 500 nM | 100 to 1000 nM | 50 to 500 nM | CC(=O)N1c2ccc(-c3ccc(NS(C)(=O)=O)c(C)c3)cc2N(C(=O)C2CCC2)C[C@@H]1C [Example I-1172] |
| > 500 nM | 100 to 1000 nM | 50 to 500 nM | CC(=O)N1c2ccc(-c3ccc4c(c3)CS(=O)(=O)N4)cc2N(C(=O)C2CC2)C[C@@H]1C [Example I-1178] |
| 100 to 500 nM | 100 to 1000 nM | 50 to 500 nM | CC(=O)N1c2ccc(-c3ccc4c(c3)CS(=O)(=O)N4)cc2N(C(=O)OC(C)C)C[C@@H]1C [Example I-1179] |
| > 500 nM | 100 to 1000 nM | 50 to 500 nM | CCOC(=O)N1C[C@H](C)N(C(C)=O)c2ccc(-c3ccc(NS(C)(=O)=O)c(F)c3)cc21 [Example I-1182] |
| 100 to 500 nM | 100 to 1000 nM | 50 to 500 nM | CC(=O)N1c2ccc(-c3ccc4c(c3)N(S(C)(=O)=O)CCC4)cc2N(C(=O)OC(C)C)C[C@@H]1C [Example I-1185] |
| 100 to 500 nM | 100 to 1000 nM | < 50 nM | COc1cc(F)ccc1OC(=O)N1C[C@H](C)N(C(C)=O)c2ccc(-c3cnn(C4CC4)c3)cc21 [Example I-1186] |
| 100 to 500 nM | 100 to 1000 nM | 50 to 500 nM | CC(=O)N1c2ccc(-c3cnn(C4CC4)c3)cc2N(C(=O)Oc2cncc(F)c2)C[C@@H]1C [Example I-1189] |
| < 100 nM | 100 to 1000 nM | < 50 nM | CC(=O)N1c2ccc(-c3cnn(C4CC4)c3)cc2N(C(=O)Oc2ccc3cnccc3c2)C[C@@H]1C [Example I-1192] |
| 100 to 500 nM | 100 to 1000 nM | 50 to 500 nM | CC(=O)N1c2ccc(-c3cnn(C4CC4)c3)cc2N(C(=O)Oc2ccc(-n3cncn3)cc2)C[C@@H]1C [Example I-1194] |
| 100 to 500 nM | 100 to 1000 nM | 50 to 500 nM | CC(=O)N1c2ccc(-c3cnn(C4CC4)c3)cc2N(C(=O)Oc2ccc(Cl)c3cccnc23)C[C@@H]1C [Example I-1196] |
| 100 to 500 nM | 100 to 1000 nM | 50 to 500 nM | COc1ccc(OC(=O)N2C[C@H](C)N(C(C)=O)c3ccc(-c4cnn(C5CC5)c4)cc32)cn1 [Example I-1199] |
| > 500 nM | 100 to 1000 nM | 50 to 500 nM | COc1ncc(Cl)cc1OC(=O)N1C[C@H](C)N(C(C)=O)c2ccc(-c3cnn(C4CC4)c3)cc21 [Example I-1207] |
| 100 to 500 nM | 100 to 1000 nM | 50 to 500 nM | CC(=O)N1c2ccc(-c3cccc(NS(C)(=O)=O)c3)cc2N(C(=O)OC2CCOCC2)C[C@@H]1C [Example I-1222] |
| 100 to 500 nM | 100 to 1000 nM | 50 to 500 nM | CC(=O)N1c2ccc(-c3cccc(S(=O)(=O)N(C)C)c3)cc2N(C(=O)OC2CCCCC2)C[C@@H]1C [Example I-1223] |
| 100 to 500 nM | 100 to 1000 nM | 50 to 500 nM | CC(=O)N1c2ccc(-c3cccc(S(=O)(=O)N(C)C)c3)cc2N(C(=O)OC2CCOCC2)C[C@@H]1C [Example I-1224] |
